{
  "source": "patent US20260258064A1",
  "about": "(SIRONAX LTD., priority 2023, published 2026)",
  "biological_target": "T1, SARM1 (50-724) (Homo sapiens, UniProt Q6SZW1)",
  "T1 construct": "Purified SARM1 (50-724) with a final concentration of 2 nM was pre-incubated with a test compound",
  "T1 sequence (Q6SZW1 50-724)": "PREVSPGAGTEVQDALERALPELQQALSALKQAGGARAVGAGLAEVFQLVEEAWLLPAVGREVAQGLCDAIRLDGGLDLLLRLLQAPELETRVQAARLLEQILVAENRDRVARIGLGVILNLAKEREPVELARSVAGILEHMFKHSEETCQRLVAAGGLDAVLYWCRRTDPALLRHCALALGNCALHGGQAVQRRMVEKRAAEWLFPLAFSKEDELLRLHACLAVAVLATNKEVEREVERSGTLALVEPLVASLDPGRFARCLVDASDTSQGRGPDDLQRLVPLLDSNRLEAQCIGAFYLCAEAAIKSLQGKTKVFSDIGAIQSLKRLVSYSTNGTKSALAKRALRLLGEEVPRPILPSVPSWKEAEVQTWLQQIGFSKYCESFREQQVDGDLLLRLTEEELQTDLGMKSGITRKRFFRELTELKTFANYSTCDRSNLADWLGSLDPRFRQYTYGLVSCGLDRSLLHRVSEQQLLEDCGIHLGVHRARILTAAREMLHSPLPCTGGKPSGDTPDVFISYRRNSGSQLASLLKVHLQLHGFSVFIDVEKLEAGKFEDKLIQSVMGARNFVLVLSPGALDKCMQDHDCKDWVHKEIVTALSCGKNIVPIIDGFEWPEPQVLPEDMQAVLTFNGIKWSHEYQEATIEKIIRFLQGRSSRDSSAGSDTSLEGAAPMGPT",
  "test": "SARM1 (50-724) enzymatic assay (LC-MS/MS)",
  "type": "biochemical",
  "details": "Purified SARM1 (50-724) 2 nM, NMN as activator, NAD+ as substrate, 1 h at room temperature, read-out: IC50 (SARM1 inhibitory activity)",
  "summary_of_the_method": "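Reaction buffer was Dulbecco's PBS. Compound and 2 nM human SARM1 (50-724) were pre-incubated 15 min at room temperature, then […] NAD^+ and 200 µM NMN activator were added for 1 h at room temperature. Acetonitrile (70%) stop, LC-MS/MS read-out, IC50 values.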",
  "data": [
    {"molecule": "CN(CC(F)F)c1cc(F)c2[nH]c(-c3nncn3-c3cnccc3C(F)(F)F)nc2c1", "note": "[Compound 318, N-(2,2-difluoroethyl)-7-fluoro-N-methyl-2-(4-(4-(trifluoromethyl)pyridin-3-yl)-4H-1,2,4-triazol-3-yl)-1H-benzo[d]imidazol-5-amine]", "values": [
      {"measurement": "IC50", "value": "≤ 100", "unit": "nM"}
    ]},
    {"molecule": "FC(F)(F)c1ccc2[nH]c(N3CCSCC3c3ccccc3)nc2c1", "note": "(stereo not shown) [Compound 319, 3-phenyl-4-(5-(trifluoromethyl)-1H-benzo[d]imidazol-2-yl)thiomorpholine]", "values": [
      {"measurement": "IC50", "value": "> 1000", "unit": "nM"}
    ]},
    {"molecule": "N#CC1CC1c1ccc2[nH]c(-c3nncn3-c3cnccc3C(F)(F)F)nc2c1F", "note": "(stereo not shown) [Compound 320, 2-(4-fluoro-2-(4-(4-(trifluoromethyl)pyridin-3-yl)-4H-1,2,4-triazol-3-yl)-1H-benzo[d]imidazol-5-yl)cyclopropane-1-carbonitrile]", "values": [
      {"measurement": "IC50", "value": "≤ 100", "unit": "nM"}
    ]},
    {"molecule": "NC(=O)C1CC1c1ccc2[nH]c(-c3nncn3-c3cnccc3C(F)(F)F)nc2c1F", "note": "(stereo not shown) [Compound 321, 2-(4-fluoro-2-(4-(4-(trifluoromethyl)pyridin-3-yl)-4H-1,2,4-triazol-3-yl)-1H-benzo[d]imidazol-5-yl)cyclopropane-1-carboxamide]", "values": [
      {"measurement": "IC50", "value": "≤ 100", "unit": "nM"}
    ]},
    {"molecule": "FC(F)(F)c1ccc2[nH]c(-c3nocc3-c3cccc(Cl)c3Cl)nc2c1", "note": "[Compound 322, 4-(2,3-dichlorophenyl)-3-(5-(trifluoromethyl)-1H-benzo[d]imidazol-2-yl)isoxazole]", "values": [
      {"measurement": "IC50", "value": "100 to 500", "unit": "nM"}
    ]},
    {"molecule": "CC(C)(O)c1ccc2[nH]c(-c3nnccc3-c3cnccc3C(F)(F)F)nc2c1", "note": "[Compound 323]", "values": [
      {"measurement": "IC50", "value": "≤ 100", "unit": "nM"}
    ]},
    {"molecule": "NC1CC1c1ccc2[nH]c(-c3nncn3-c3cnccc3C(F)(F)F)nc2c1F", "note": "(stereo not shown) [Compound 324, 2-(4-fluoro-2-(4-(4-(trifluoromethyl)pyridin-3-yl)-4H-1,2,4-triazol-3-yl)-1H-benzo[d]imidazol-5-yl)cyclopropan-1-amine]", "values": [
      {"measurement": "IC50", "value": "100 to 500", "unit": "nM"}
    ]},
    {"molecule": "[O-][S+]1CCN(c2ccccc2)C(c2nc3cc(C(F)(F)F)ccc3[nH]2)C1", "note": "(stereo not shown) [Compound 325, 4-phenyl-3-(5-(trifluoromethyl)-1H-benzo[d]imidazole-2-yl)thiomorpholine 1-oxide]", "values": [
      {"measurement": "IC50", "value": "> 1000", "unit": "nM"}
    ]},
    {"molecule": "Fc1cc(N2CCC(F)(F)C2)cc2nc(-c3nncn3-c3cnccc3C(F)(F)F)[nH]c12", "note": "[Compound 326, 5-(3,3-difluoropyrrolidin-1-yl)-7-fluoro-2-(4-(4-(trifluoromethyl)pyridin-3-yl)-4H-1,2,4-triazol-3-yl)-1H-benzo[d]imidazole]", "values": [
      {"measurement": "IC50", "value": "100 to 500", "unit": "nM"}
    ]},
    {"molecule": "Oc1cc(F)c2[nH]c(-c3nncn3-c3cnccc3C(F)(F)F)nc2c1", "note": "[Compound 327, 7-fluoro-2-(4-(4-(trifluoromethyl)pyridin-3-yl)-4H-1,2,4-triazol-3-yl)-1H-benzo[d]imidazol-5-ol]", "values": [
      {"measurement": "IC50", "value": "≤ 100", "unit": "nM"}
    ]},
    {"molecule": "COc1cc(F)c2[nH]c(-c3nncn3-c3cnccc3C(F)(F)F)nc2c1", "note": "[Compound 328, 7-fluoro-5-methoxy-2-(4-(4-(trifluoromethyl)pyridin-3-yl)-4H-1,2,4-triazol-3-yl)-1H-benzo[d]imidazole]", "values": [
      {"measurement": "IC50", "value": "≤ 100", "unit": "nM"}
    ]},
    {"molecule": "Fc1c(CC(F)F)cc(F)c2[nH]c(-c3nncn3-c3cnccc3C(F)(F)F)nc12", "note": "[Compound 329, 5-(2,2-difluoroethyl)-4,7-difluoro-2-[4-[4-(trifluoromethyl)-3-pyridyl]-1,2,4-triazol-3-yl]-1H-benzimidazole]", "values": [
      {"measurement": "IC50", "value": "≤ 100", "unit": "nM"}
    ]},
    {"molecule": "CC1CC1c1cc(F)c2[nH]c(-c3nncn3-c3cnccc3C(F)(F)F)nc2c1", "note": "(stereo not shown) [Compound 330, 7-fluoro-5-(2-methylcyclopropyl)-2-(4-(4-(trifluoromethyl)pyridin-3-yl)-4H-1,2,4-triazol-3-yl)-1H-benzo[d]imidazole]", "values": [
      {"measurement": "IC50", "value": "≤ 100", "unit": "nM"}
    ]},
    {"molecule": "Fc1cc(OCC(F)F)cc2nc(-c3nncn3-c3cnccc3C(F)(F)F)[nH]c12", "note": "[Compound 331, 5-(2,2-difluoroethoxy)-7-fluoro-2-(4-(4-(trifluoromethyl)pyridin-3-yl)-4H-1,2,4-triazol-3-yl)-1H-benzo[d]imidazole]", "values": [
      {"measurement": "IC50", "value": "≤ 100", "unit": "nM"}
    ]},
    {"molecule": "Fc1cc2[nH]c(-c3nncn3-c3cnccc3C(F)(F)F)nc2c(F)c1C1CC1", "note": "[Compound 332, 5-cyclopropyl-4,6-difluoro-2-(4-(4-(trifluoromethyl)pyridin-3-yl)-4H-1,2,4-triazol-3-yl)-1H-benzo[d]imidazole]", "values": [
      {"measurement": "IC50", "value": "≤ 100", "unit": "nM"}
    ]},
    {"molecule": "FC(F)(F)c1ccncc1-n1cnnc1-c1nc2c(C3CC3)c(Cl)ccc2[nH]1", "note": "[Compound 333, 6-chloro-7-cyclopropyl-2-(4-(4-(trifluoromethyl)pyridin-3-yl)-4H-1,2,4-triazol-3-yl)-1H-benzo[d]imidazole]", "values": [
      {"measurement": "IC50", "value": "500 to 1000", "unit": "nM"}
    ]},
    {"molecule": "FC(F)(F)c1ccncc1-n1cnnc1-c1nc2c(-c3cccnc3)c(Cl)ccc2[nH]1", "note": "[Compound 334, 6-chloro-7-(pyridin-3-yl)-2-(4-(4-(trifluoromethyl)pyridin-3-yl)-4H-1,2,4-triazol-3-yl)-1H-benzo[d]imidazole]", "values": [
      {"measurement": "IC50", "value": "> 1000", "unit": "nM"}
    ]},
    {"molecule": "FC(F)(F)c1ccc2[nH]c(C3=C(c4ccccc4Cl)CSC3)nc2c1", "note": "[Compound 335, 2-(4-(2-chlorophenyl)-2,5-dihydrothiophen-3-yl)-5-(trifluoromethyl)-1H-benzo[d]imidazole]", "values": [
      {"measurement": "IC50", "value": "500 to 1000", "unit": "nM"}
    ]},
    {"molecule": "Fc1cc(C(F)(F)F)cc2nc(-c3nncnc3-c3cnccc3C(F)(F)F)[nH]c12", "note": "[Compound 336, 7-fluoro-5-(trifluoromethyl)-2-(5-(4-(trifluoromethyl)pyridin-3-yl)-1,2,4-triazin-6-yl)-1H-benzo[d]imidazole]", "values": [
      {"measurement": "IC50", "value": "≤ 100", "unit": "nM"}
    ]},
    {"molecule": "O=S1(=O)CC(c2nc3cc(C(F)(F)F)ccc3[nH]2)=C(c2ccccc2Cl)C1", "note": "[Compound 337, 3-(2-chlorophenyl)-4-(5-(trifluoromethyl)-1H-benzo[d]imidazol-2-yl)-2,5-dihydrothiophene 1,1-dioxide]", "values": [
      {"measurement": "IC50", "value": "> 1000", "unit": "nM"}
    ]},
    {"molecule": "Fc1cc(C2CC23CC3)cc2nc(-c3nncn3-c3cnccc3C(F)(F)F)[nH]c12", "note": "(stereo not shown) [Compound 338, 7-fluoro-5-spiro[2.2]pentan-2-yl-2-[4-[4-(trifluoromethyl)-3-pyridyl]-1,2,4-triazol-3-yl]-1H-benzimidazole]", "values": [
      {"measurement": "IC50", "value": "≤ 100", "unit": "nM"}
    ]},
    {"molecule": "Fc1cc(C2CC2C(F)F)cc2nc(-c3nncn3-c3cnccc3C(F)(F)F)[nH]c12", "note": "(stereo not shown) [Compound 339, 5-(2-(difluoromethyl)cyclopropyl)-7-fluoro-2-(4-(4-(trifluoromethyl)pyridin-3-yl)-4H-1,2,4-triazol-3-yl)-1H-benzo[d]imidazole]", "values": [
      {"measurement": "IC50", "value": "≤ 100", "unit": "nM"}
    ]},
    {"molecule": "FC(F)(F)c1ccc2[nH]c(C3CSCC3c3ccccc3Cl)nc2c1", "note": "(stereo not shown) [Compound 340, 2-(4-(2-chlorophenyl)tetrahydrothiophen-3-yl)-5-(trifluoromethyl)-1H-benzo[d]imidazole]", "values": [
      {"measurement": "IC50", "value": "100 to 500", "unit": "nM"}
    ]},
    {"molecule": "CN(c1ccc2[nH]c(-c3nncn3-c3cnccc3C(F)(F)F)nc2c1)S(C)(=O)=O", "note": "[Compound 341, N-methyl-N-[2-[4-[4-(trifluoromethyl)-3-pyridyl]-1,2,4-triazol-3-yl]-1H-benzimidazol-5-yl]methanesulfonamide]", "values": [
      {"measurement": "IC50", "value": "100 to 500", "unit": "nM"}
    ]},
    {"molecule": "FC(F)(F)c1ccncc1-n1cnnc1-c1nc2cc(N3C4COCC3C4)ccc2[nH]1", "note": "[Compound 342, 6-[2-[4-[4-(trifluoromethyl)-3-pyridyl]-1,2,4-triazol-3-yl]-1H-benzimidazol-5-yl]-3-oxa-6-azabicyclo[3.1.1]heptane]", "values": [
      {"measurement": "IC50", "value": "500 to 1000", "unit": "nM"}
    ]},
    {"molecule": "CC(C)(O)c1ccc2[nH]c(-c3nnccc3-c3cnccc3C(F)(F)F)nc2c1F", "note": "[Compound 343, 2-(4-Fluoro-2-(4-(4-(trifluoromethyl)pyridin-3-yl)pyridazin-3-yl)-1H-benzo[d]imidazol-5-yl)propan-2-ol]", "values": [
      {"measurement": "IC50", "value": "≤ 100", "unit": "nM"}
    ]},
    {"molecule": "FC(F)(F)c1ccc2[nH]c(N3CCC3c3ccccc3)nc2c1", "note": "(stereo not shown) [Compound 344, 2-(2-phenylazetidin-1-yl)-5-(trifluoromethyl)-1H-benzo[d]imidazole]", "values": [
      {"measurement": "IC50", "value": "500 to 1000", "unit": "nM"}
    ]},
    {"molecule": "CS(=O)(=O)c1c(-c2nncn2-c2cccc(F)c2Cl)[nH]c2ccc(C(F)(F)F)cc12", "note": "[Compound 346, 2-[4-(2-chloro-3-fluorophenyl)-1,2,4-triazol-3-yl]-3-methanesulfonyl-5-(trifluoromethyl)-1H-indole]", "values": [
      {"measurement": "IC50", "value": "≤ 100", "unit": "nM"}
    ]},
    {"molecule": "CC1(C)CC1c1cc(F)c2[nH]c(-c3nncn3-c3cnccc3C(F)(F)F)nc2c1", "note": "(stereo not shown) [Compound 347, 5-(2,2-dimethylcyclopropyl)-7-fluoro-2-(4-(4-(trifluoromethyl)pyridin-3-yl)-4H-1,2,4-triazol-3-yl)-1H-benzo[d]imidazole]", "values": [
      {"measurement": "IC50", "value": "≤ 100", "unit": "nM"}
    ]},
    {"molecule": "CC(C)(C)c1ccc2[nH]c(-c3nncn3-c3cnccc3C(F)(F)F)cc2n1", "note": "[Compound 348, 5-(tert-butyl)-2-(4-(4-(trifluoromethyl)pyridin-3-yl)-4H-1,2,4-triazol-3-yl)-1H-pyrrolo[3,2-b]pyridine]", "values": [
      {"measurement": "IC50", "value": "≤ 100", "unit": "nM"}
    ]},
    {"molecule": "FC(F)(F)c1ccncc1-n1cnnc1-c1nc2cc(C3CCOCC3)ccc2[nH]1", "note": "[Compound 352, 5-tetrahydropyran-4-yl-2-[4-[4-(trifluoromethyl)-3-pyridyl]-1,2,4-triazol-3-yl]-1H-benzimidazole]", "values": [
      {"measurement": "IC50", "value": "100 to 500", "unit": "nM"}
    ]}
  ]
}
